Experiments:
[1] = tested on: P. falciparum D10-ACP-GFP (MRA-568); assay: SYBR Green I growth inhibition assay, D10-ACP-GFP; type: cell-based, Plasmodium falciparum; conditions: early-ring stage, 72 h exposure
Description: Fig. 1. […] (B) SYBR Green–based dose response assays were conducted on early-ring stage parasites (6 hours after invasion). […] 3D7 WT (blue), NF54 (green), drug-resistant strains Dd2 (red), HB3 (black), W2 (gray), and D10-ACP-GFP (purple) lines (Sigmoidal, 4PL, X is concentration, n ≥ 3, nonlinear regression, CI: 95%). (C) Schematic diagram of the development of P. falciparum after two consecutive erythrocytic cycles. The time points at which MED6-189 was introduced are depicted in green. HPS, hours post synchronization. […] The images depict various developmental stages of the parasite’s intraerythrocytic life cycle. […]
Fluorescence microscopy analyses were conducted using D10-ACP-GFP transgenic parasites, which express a fusion of the acyl carrier protein (ACP) with green fluorescent protein (GFP) in the parasite apicoplast ([25]). […]
(§1) Detailed information on materials and methods is available in the supplementary materials. […] P. knowlesi assays were quantitatively measured by flow cytometry using SYBR Green I and Mitrotracker Deep Red, as previously described ([84], [85]), on a Beckman Coulter CytoFLEX. […]
(§2) P. falciparum in vitro SYBR green fluorescence-based assays The anti-malarial activity of individual analogues were evaluated in-vitro against P. falciparum 3D7 (MRA-102, drug […]
green-I based fluorescence assay. […]

[2] = tested on: P. knowlesi YH1 rhesus erythrocyte infecting parasites; assay: P. knowlesi in vitro IC50 assay (flow cytometry), rhesus erythrocytes; type: cell-based; conditions: Plasmodium knowlesi, in Macaca mulatta
Description: Fig. 5. In vivo and broad-spectrum antimalarial efficacy of MED6-189. (A) The in vivo efficacy of MED6-189 was evaluated in a humanized mouse model infected with P. falciparum (blue) compared with untreated controls (black). […] The graphs illustrate the logarithmic growth of parasites (y axis) in response to varying drug concentrations (x axis). Error bars represent standard deviations from two independent experiments conducted in triplicate. The regression line is derived from a nonlinear regression analysis (variable slope with four parameters, least squares fit). (C) Proposed mode of action of MED6-189 in P. falciparum–infected erythrocytes. […]
as §1, §2
green-I based fluorescence assay. Parasite growth rate and stages of development were determined via microscopy through Giemsa-stained smears of the cultures. […]

**Q.** Which results are given for `[C-]#[N+][C@]1(C)CC[C@H]2[C@@H]([C@@H](C(C)C)CC[C@]2(C)[N+]#[C-])[C@H]1O` [MED6-189]?
**A.** IC50 ([1]; Plasmodium falciparum, D10, 72 h): 17 nM; IC50 [1]: 17.2 nM; IC50 [2]: 276 ± 22 nM

Source: article PMC11793105, “A kalihinol analog disrupts apicoplast function and vesicular trafficking in P. falciparum malaria” (Science (New York, N.Y.), 2024)
